Measurements published in patent US20170266266A1, “Functions of 55 Newfound Proteins and Their Medicinal Application in the Treatment and Prevention of Disease” (priority 2012, published 2017).

Columns and labels:
[1] = system: adjuvant-induced arthritis; test: Adjuvant-Induced Arthritis (AIA) in Lewis rats; conditions: 35 days and 45 days treatment sections
HBV [2] = test: Efficacy of AFOD RAAS 105 in the HBV mouse hydrodynamic injection model; assay type: in vivo, BALB/c mice
Experimental: From day −7 to day 0, mice in groups 6-7 are administrated IP/IV by turn with test article daily for 8 days according to Table 3.
On day 0, mice from group 1 to group 7 are hydrodynamically injected through tail vein with pcDNA3.1/HBV plasmid DNA in a volume of normal saline equal to 8% of a mouse body weight within 5 seconds. The plasmid DNA solution for injections is prepared before injection.
From day 0 to day 4, mice in groups 3-5 are administrated IP/IV by turn with test article daily for 5 days according to Table 2. From day 0 to day 4, mice in groups 1 and 2 are administrated PO with vehicle or ETV daily for 5 days according to Table 1. For groups 1-5, the first dosing is executed 4 hours post hydrodynamic injection. For groups 6-7, the last dosing is executed 4 hours pre hydrodynamic injection.
Mice from group 1 to group 7 are submandibularly bled for plasma preparation according to the design in Table 1. The blood samples will be collected in a tube containing heparin sodium and centrifuged at 7000×g and 4° C. for 10 min to obtain plasma samples.
On day 5, all mice in groups 1-7 are sacrificed and dissected to obtain livers (two pieces of left lobe, one piece of middle lobe and one piece of right lobe) according to the regimen in table 1. […]
Run qPCR for HBV DNA quantification. • a. […]
HBV DNA quantity=DNA determined by HBV primer-DNA determined by plasmid primer. […]

HBV [3] = test: Efficacy of RAAS-8 in the HBV mouse hydrodynamic injection model; assay type: in vivo, BALB/c mice
Experimental: 3.1 Hydrodynamic Injection and Compound Administration • 3.1.1. From day −7 to day 0, all 5 mice in group 4 were administrated i.p./i.v. with test article daily for 8 • days according to Table 2. • 3.1.2. On day 0, all groups of mice were hydrodynamicly injected via tail vein with pcDNA3.1/HBV plasmid DNA in a volume of normal saline equal to 8% of a mouse body weight. The plasmid DNA solution for injections was prepared one day before injection and then stored in 4E until injection. • 3.1.3. From day 0 to day 5, mice in groups 1-3 were weighed and treated with compounds or vehicle according to the regimen in Table 2. For groups 1 and 3, the first dosing was executed 4 hours pre HDI. For groups 2, the first dosing was executed 4 hours post HDI. For group 4, the last dosing was carried out 4 hours post HDI. • 3.1.4. All mice were submandibularly bled for plasma preparation according to the design in Table 1. • 3.1.5. All mice were sacrificed and dissected to obtain livers (two pieces of left lobe, one piece of middle lobe and one piece of right lobe) according to the regimen in table 1. Isolated livers were snap frozen in liquid nitrogen immediately upon collected.
3.2.1 Detect HBV DNA Replication Level in Plasma • 3.2.1.1 Isolate DNA from 50 μl plasma using QIAamp 96 DNA Blood Kit. DNA was eluted with 120 μl ddH2O. • 3.2.1.2. Run qPCR for HBV DNA quantification. • a) Dilute HBV plasmid standard by 10-fold from 10^7 copies/μl to 10 copies/μl. • b) Prepare qPCR mix as shown below.
To eliminate the influence of input HBV plasmid, primers and probe targeting HBV sequence which detect newly replicated HBV DNA and input HBV plasmid DNA and targeting pcDNA3.1 plasmid backbone sequence which only detect the input plasmid DNA were used to do real-time PCR, respectively.
HBV DNA quantity=DNA determined by HBV primer-DNA determined by plasmid primer.
Dilute the plasma 500 fold;
Detect HBsAg level in 50 μl diluted plasma by using HBsAg ELISA kit.
3.2.3.1 Liver DNA Isolation • a) Homogenize the liver tissue with Qiagen Tissue Lyser in 10 mM Tris.HCl, 10 mM EDTA, pH7.5. • b) Spin samples. Transfer the supernatant to a new tube containing equal volume of 2× proteinase K digestion buffer. Incubate at 50[…] for 3 hours. • c) Extract with phenol: chloroform: Isoamyl alcohol. • d) Transfer the upper phase to new tubes, add RNase A and incubate at 37° C. for 30 min. • e) Extract with phenol: chloroform: Isoamyl alcohol. • f) Transfer the upper phase to new microfuge tubes, add 0.7-1 volume of isopropanol, add GlycoBlue Coprecipitant to 50 μg/mL, incubate at −20[…] for 30 min. • g) Centrifuge (12000 g, 10 min) to precipitate DNA. • h) Wash the precipitate with 70% ethanol. Dissolve it in 25 μl ddH2O. Store DNA at −20[…] until use.
The total liver DNA was diluted to 10 ng/μl. […]

Compound: C[C@@H]1C[C@H]2[C@@H]3CCC4=CC(=O)C=C[C@]4(C)[C@@]3(F)[C@@H](O)C[C@]2(C)[C@@]1(O)C(=O)CO [Dex, Dexamethasone]
- body weight vs saline group [1]: reduction of body weight

Compound: C=C1[C@H](CO)[C@@H](O)C[C@@H]1n1cnc2c(=O)[nH]c(N)nc21 [entecavir, Entecavir, reference compound]
- HBV replication in livers by real-time PCR (HBV [2]; day 5): significantly inhibited HBV replication in livers
- HBsAg generation (HBV [2]; oral 0.1 mg/kg, day 3): significant increase
- ssDNA in liver by southern blot (HBV [3]; RASS 8 prophylactic treatment or ETV treatment): decreased dramatically
- HBV intermediate DNA in liver by real-time PCR (HBV [3]; day 5): significantly decreased
- HBsAg level in plasma (HBV [3]; therapeutic treatment, within 5 days post HDI): didn't have significant inhibition
- inhibition to HBV replication (plasma HBV DNA) (HBV [3]; therapeutically-treated, day 3 post HDI to end): significant inhibition
